Key:
[1] = tested on: harmful plants such as Sinapis alba, Echinochloa crus-galli, Lolium multiflorum, Stellaria media, Cyperus iria, Amaranthus retroflexus, Setaria viridis, Avena …; experiment: Post-emergence effect on weeds (greenhouse pot test); type: in vivo; details: application rate of 2 kg or less of active ingredient per hectare; treated in the three-leaf stage; scored after approx. 3 to 4 weeks by comparison with untreated controls
[2] = tested on: harmful plants such as Stellaria media, Lolium multiforum, Amaranthus retroflexus, Sinapis alba, Avena sativa and Setaria viridis; experiment: Pre-emergence effect on weeds (greenhouse pot test); type: in vivo; details: application rate of 1 kg or less of active ingredient per hectare; scored after 3 to 4 weeks by comparison with untreated controls
Text: Seeds or rhizome pieces of monocotyledonous and dicotyledonous weed plants were placed in sandy loam in plastic pots and covered with soil. The compounds according to the invention, which were formulated in the form of wettable powders or emulsion concentrates, were then applied to the surface of the soil cover as aqueous suspension or emulsion at various dosages with an application rate of 600 to 800 l of water per ha (converted).
After the treatment, the pots were placed into a greenhouse and kept under good growth conditions for the weeds. The plant or emergence damage was scored visually after the test plants have emerged after an experimental time of 3 to 4 weeks by comparison with untreated controls.

Row | SMILES | herbicidal post-emergence activity against harmful plants (scored visually) [1] | pre-emergence control of harmful plants (plant or emergence damage scored visually) [2]
1 | CCCC(F)c1nc(N)nc(N[C@@H]2CCCc3ccc(C)cc32)n1 (some centres unmarked) [Compound 10.66] | very good herbicidal post-emergence activity | very good pre-emergence control
2 | CCCc1nc(N)nc(N[C@@H]2CCOc3ccc(C)cc32)n1 [Compound 8.231] | very good herbicidal post-emergence activity | very good pre-emergence control
3 | C[C@@H](Cl)c1nc(N)nc(N[C@@H]2CCc3ccccc32)n1 [Compound 1.24] | very good herbicidal post-emergence activity | very good pre-emergence control
4 | CCc1ccc2c(c1)[C@H](Nc1nc(N)nc(CC)n1)CC2 [Compound 8.248] | very good herbicidal post-emergence activity | very good pre-emergence control
5 | CC(F)c1nc(N)nc(NC2CCc3ccccc32)n1 (mixture of isomers) [Compound 10.1] | very good herbicidal post-emergence activity | very good pre-emergence control
6 | Cc1ccc2c(c1)[C@H](Nc1nc(N)nc(C(C)F)n1)CC2 (some centres unmarked) [Compound 10.2] | very good herbicidal post-emergence activity | very good pre-emergence control
7 | CCCc1nc(N)nc(N[C@@H]2CCCc3c(C)cc(C)cc32)n1 [Compound 8.61] | very good herbicidal post-emergence activity | very good pre-emergence control
8 | CC(C)(F)c1nc(N)nc(N[C@@H]2CCCc3ccccc32)n1 [Compound 8.205] | very good herbicidal post-emergence activity | very good pre-emergence control
9 | Cc1cc(C)c2c(c1)[C@H](Nc1nc(N)nc([C@@H](C)F)n1)CCC2 [Compound 1.15] | very good herbicidal post-emergence activity | very good pre-emergence control
10 | COCc1nc(N)nc(N[C@@H]2CCCc3c(C)cc(C)cc32)n1 [Compound 8.253] | very good herbicidal post-emergence activity | very good pre-emergence control
11 | C[C@@H](F)c1nc(N)nc(N[C@@H]2CCc3ccccc32)n1 [Compound 1.1] | very good herbicidal post-emergence activity | very good pre-emergence control
12 | CCc1ccc2c(c1)[C@H](Nc1nc(C)nc(N)n1)CC2 [Compound 8.246] | very good herbicidal post-emergence activity | very good pre-emergence control
13 | Nc1nc(CF)nc(N[C@@H]2CCCc3ccccc32)n1 [Compound 8.100] | very good herbicidal post-emergence activity | very good pre-emergence control
14 | Cc1ccc2c(c1)[C@H](Nc1nc(N)nc(C(C)(C)Cl)n1)CC2 [Compound 8.219] | very good herbicidal post-emergence activity | very good pre-emergence control
15 | Nc1nc(N[C@@H]2CCCc3ccccc32)nc(C2(F)CC2)n1 [Compound 8.170] | very good herbicidal post-emergence activity | very good pre-emergence control
16 | Cc1ccc2c(c1C)OCC[C@H]2Nc1nc(N)nc(C(C)(C)F)n1 [Compound 8.241] | very good herbicidal post-emergence activity | very good pre-emergence control
17 | Cc1ccc2c(c1)[C@H](Nc1nc(N)nc(CCSC(F)(F)F)n1)CCC2 [Compound 8.251] | very good herbicidal post-emergence activity | very good pre-emergence control
18 | Cc1cc2c(cc1C)[C@H](Nc1nc(N)nc([C@H](C)F)n1)CC2 [Compound 3.7] | very good herbicidal post-emergence activity | very good pre-emergence control
19 | C[C@@H]1Cc2ccccc2[C@@H]1Nc1nc(N)nc([C@@H](C)F)n1 [Compound 5.1] | very good herbicidal post-emergence activity | very good pre-emergence control
20 | Cc1nc(N)nc(N[C@H]2c3ccccc3C[C@@H]2C)n1 [Compound 7.1] | very good herbicidal post-emergence activity | very good pre-emergence control
21 | CCc1nc(N)nc(N[C@@H]2CCCc3ccccc32)n1 [Compound 8.34] | very good herbicidal post-emergence activity | very good pre-emergence control
22 | Cc1nc(N)nc(N[C@H]2c3cc(Cl)ccc3C[C@@H]2C)n1 [Compound 7.4] | very good herbicidal post-emergence activity | very good pre-emergence control
23 | Cc1nc(N)nc(N[C@@H]2CCc3ccc(F)cc32)n1 [Compound 8.3] | very good herbicidal post-emergence activity | very good pre-emergence control
24 | Nc1nc(CF)nc(N[C@@H]2CCc3ccccc32)n1 [Compound 8.90] | very good herbicidal post-emergence activity | very good pre-emergence control
25 | CCc1ccc2c(c1)[C@H](Nc1nc(N)nc(C(C)(C)F)n1)CC2 [Compound 8.245] | very good herbicidal post-emergence activity | very good pre-emergence control
26 | Cc1ccc2c(c1)[C@H](Nc1nc(N)nc(C(C)(Cl)Cl)n1)CC2 [Compound 8.79] | very good herbicidal post-emergence activity | very good pre-emergence control
27 | Cc1ccc2c(c1)[C@H](Nc1nc(N)nc([C@@H](C)F)n1)[C@H](C)C2 [Compound 5.2] | very good herbicidal post-emergence activity | very good pre-emergence control
28 | Nc1nc(N[C@@H]2CCCc3ccccc32)nc(C(F)(F)F)n1 [Compound 8.254] | very good herbicidal post-emergence activity | very good pre-emergence control
